# ChEMBL document CHEMBL4359837, “Discovery of 2-(4-Chloro-3-(trifluoromethyl)phenyl)-N-(4-((6,7-dimethoxyquinolin-4-yl)oxy)phenyl)acetamide (CHMFL-KIT-64) as a Novel Orally Available Potent Inhibitor against Broad-Spectrum Mutants of c-KIT Kinase for Gastrointestinal Stromal Tumors” (J Med Chem, 2019)
# Active and inactive are the calls of the source. No cut-off for these calls is given here.
# Tests used:
# [1] = Growth inhibition of mouse BAF3 cells measured after 72 hrs by CCK8 assay; format: cell-based
# [2] = biological target: Mast/stem cell growth factor receptor Kit (Mus musculus) (UniProt P05532); test: Inhibition of c-KIT in mouse BAF3(transformed) cells assessed as growth inhibition after 72 hrs by CCK8 assay
# [3] = system: Mast/stem cell growth factor receptor Kit (Homo sapiens), P10721 [T670I]; details: Mus musculus
# Description: Inhibition of c-KIT T670I mutant in mouse BAF3(transformed) cells assessed as growth inhibition after 72 hrs by CCK8 assay
# [4] = species on record: Mus musculus; test: Inhibition of c-KIT T670E mutant in mouse BAF3(transformed) cells assessed as growth inhibition after 72 hrs by CCK8 assay
# [5] = system: Mast/stem cell growth factor receptor Kit (Homo sapiens), P10721 [K642E]
# [6] = species on record: Mus musculus; test: Inhibition of c-KIT D816E mutant in mouse BAF3(transformed) cells assessed as growth inhibition after 72 hrs by CCK8 assay
# [7] = species on record: Mus musculus; test: Inhibition of c-KIT S709F mutant in mouse BAF3(transformed) cells assessed as growth inhibition after 72 hrs by CCK8 assay
# [8] = system: Mast/stem cell growth factor receptor Kit (Homo sapiens), P10721 [UNDEFINED MUTATION]; details: GISTT1
# Description: Inhibition of c-KIT 560 to 578 deletion mutant in human GISTT1 cells assessed as growth inhibition after 72 hrs by CCK8 assay
# [9] = system: GISTT1; format: functional, Homo sapiens
# [10] = system: GISTT1; format: functional, Homo sapiens; details: Mus musculus, GISTT1, po, 672 h; read-out: TGI
# [11] = system: Mast/stem cell growth factor receptor Kit (Homo sapiens), P10721 [V559A]; details: Mus musculus
# Description: Inhibition of c-KIT V559A mutant in mouse BAF3(transformed) cells assessed as growth inhibition after 72 hrs by CCK8 assay
# [12] = system: GISTT1; format: functional, cell-based; details: Homo sapiens
# [13] = Growth inhibition of human GIST48B cells after 72 hrs by CCK8 assay; format: functional
# [14] = species on record: Mus musculus; test: Inhibition of c-KIT V654A/V559D double mutant in mouse BAF3(transformed) cells assessed as growth inhibition after 72 hrs by CCK8 assay
# [15] = species on record: Mus musculus; test: Inhibition of c-KIT D820G mutant in mouse BAF3(transformed) cells assessed as growth inhibition after 72 hrs by CCK8 assay
# [16] = system: Mast/stem cell growth factor receptor Kit (Homo sapiens), P10721 [V559G]; details: Mus musculus
# Description: Inhibition of c-KIT V559G mutant in mouse BAF3(transformed) cells assessed as growth inhibition after 72 hrs by CCK8 assay
# [17] = system: Mast/stem cell growth factor receptor Kit (Homo sapiens), P10721 [Y823D]; details: Mus musculus
# Description: Inhibition of c-KIT Y823D mutant in mouse BAF3(transformed) cells assessed as growth inhibition after 72 hrs by CCK8 assay
# [18] = system: Mast/stem cell growth factor receptor Kit (Homo sapiens), P10721 [D820Y]; details: Mus musculus
# Description: Inhibition of c-KIT D820Y mutant in mouse BAF3(transformed) cells assessed as growth inhibition after 72 hrs by CCK8 assay
# [19] = species on record: Mus musculus; test: Inhibition of c-KIT T670I/V559D double mutant in mouse BAF3(transformed) cells assessed as growth inhibition after 72 hrs by CCK8 assay
# [20] = biological target: T1, Platelet-derived growth factor receptor alpha (Homo sapiens, UniProt P16234); format: cell-based; details: GISTT1
# [21] = biological target: T1, Platelet-derived growth factor receptor alpha; format: cell-based; details: GISTT1; remark: listed apart in the source
# [22] = biological target: T1, Platelet-derived growth factor receptor alpha; format: cell-based; details: GISTT1; remark: listed apart in the source
# [23] = biological target: T1, Platelet-derived growth factor receptor alpha; format: cell-based; details: GISTT1; remark: listed apart in the source
# [24] = biological target: T1, Platelet-derived growth factor receptor alpha; format: cell-based; details: GISTT1; remark: listed apart in the source
# [25] = biological target: T1, Platelet-derived growth factor receptor alpha; format: cell-based; details: GISTT1; remark: listed apart in the source
# [26] = biological target: T1, Platelet-derived growth factor receptor alpha; format: cell-based; details: GISTT1; remark: listed apart in the source
# T1 sequence (P16234 whole entry): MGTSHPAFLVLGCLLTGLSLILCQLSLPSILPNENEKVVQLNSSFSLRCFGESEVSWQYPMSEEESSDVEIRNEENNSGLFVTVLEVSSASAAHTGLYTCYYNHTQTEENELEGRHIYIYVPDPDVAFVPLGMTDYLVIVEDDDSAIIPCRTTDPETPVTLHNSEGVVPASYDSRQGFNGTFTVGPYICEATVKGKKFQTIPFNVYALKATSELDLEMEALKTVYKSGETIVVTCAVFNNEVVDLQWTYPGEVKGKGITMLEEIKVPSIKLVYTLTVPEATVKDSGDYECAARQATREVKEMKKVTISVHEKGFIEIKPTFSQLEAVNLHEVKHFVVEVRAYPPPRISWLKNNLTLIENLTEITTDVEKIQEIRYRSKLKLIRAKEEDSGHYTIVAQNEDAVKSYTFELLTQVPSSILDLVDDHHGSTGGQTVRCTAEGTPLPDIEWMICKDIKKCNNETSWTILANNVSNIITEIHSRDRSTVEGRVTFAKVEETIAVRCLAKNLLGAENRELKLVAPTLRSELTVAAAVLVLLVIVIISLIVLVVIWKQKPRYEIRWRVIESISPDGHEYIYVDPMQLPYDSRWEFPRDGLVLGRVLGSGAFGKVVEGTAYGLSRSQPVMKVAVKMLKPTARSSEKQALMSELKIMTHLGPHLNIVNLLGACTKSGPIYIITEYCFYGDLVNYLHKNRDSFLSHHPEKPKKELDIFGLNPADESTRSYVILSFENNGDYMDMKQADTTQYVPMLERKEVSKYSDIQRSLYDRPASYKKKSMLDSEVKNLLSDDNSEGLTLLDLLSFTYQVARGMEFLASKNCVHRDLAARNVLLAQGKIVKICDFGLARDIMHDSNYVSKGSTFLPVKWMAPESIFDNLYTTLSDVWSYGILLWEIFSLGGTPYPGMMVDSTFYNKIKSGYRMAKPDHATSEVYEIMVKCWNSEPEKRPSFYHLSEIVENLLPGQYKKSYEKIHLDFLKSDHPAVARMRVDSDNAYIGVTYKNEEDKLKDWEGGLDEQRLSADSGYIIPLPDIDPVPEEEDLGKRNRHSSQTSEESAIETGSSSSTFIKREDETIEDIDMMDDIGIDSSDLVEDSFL
# Sequence of Mast/stem cell growth factor receptor Kit (Mus musculus) (P05532 whole entry): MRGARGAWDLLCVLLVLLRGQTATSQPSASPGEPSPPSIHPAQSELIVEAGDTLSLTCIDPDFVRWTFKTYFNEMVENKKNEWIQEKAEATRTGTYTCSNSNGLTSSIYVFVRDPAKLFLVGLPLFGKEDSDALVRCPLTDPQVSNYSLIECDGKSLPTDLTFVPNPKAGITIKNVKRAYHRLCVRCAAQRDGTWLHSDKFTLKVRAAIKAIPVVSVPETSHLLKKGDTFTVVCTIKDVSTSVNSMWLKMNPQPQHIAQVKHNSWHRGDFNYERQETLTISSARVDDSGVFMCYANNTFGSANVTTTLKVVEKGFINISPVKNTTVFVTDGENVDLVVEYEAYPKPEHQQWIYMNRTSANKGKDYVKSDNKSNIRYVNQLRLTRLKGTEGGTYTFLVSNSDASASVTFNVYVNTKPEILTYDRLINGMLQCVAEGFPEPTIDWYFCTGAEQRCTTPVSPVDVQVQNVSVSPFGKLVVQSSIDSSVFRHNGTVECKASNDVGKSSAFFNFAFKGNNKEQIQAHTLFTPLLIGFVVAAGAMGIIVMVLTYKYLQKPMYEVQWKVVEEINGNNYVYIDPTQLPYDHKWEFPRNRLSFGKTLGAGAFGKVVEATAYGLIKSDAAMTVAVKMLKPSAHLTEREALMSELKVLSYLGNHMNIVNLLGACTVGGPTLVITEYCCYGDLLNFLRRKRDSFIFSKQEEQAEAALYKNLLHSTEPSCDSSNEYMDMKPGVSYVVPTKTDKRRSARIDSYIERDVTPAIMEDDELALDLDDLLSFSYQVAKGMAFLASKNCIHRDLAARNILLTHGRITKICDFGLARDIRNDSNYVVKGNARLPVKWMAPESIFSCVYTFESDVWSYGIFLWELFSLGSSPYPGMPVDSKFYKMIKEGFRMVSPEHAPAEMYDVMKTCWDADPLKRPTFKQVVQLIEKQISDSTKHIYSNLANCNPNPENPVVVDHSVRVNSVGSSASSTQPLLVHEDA
# Sequence of Mast/stem cell growth factor receptor Kit (Homo sapiens), P10721 [T670I] (P10721 whole entry T670I): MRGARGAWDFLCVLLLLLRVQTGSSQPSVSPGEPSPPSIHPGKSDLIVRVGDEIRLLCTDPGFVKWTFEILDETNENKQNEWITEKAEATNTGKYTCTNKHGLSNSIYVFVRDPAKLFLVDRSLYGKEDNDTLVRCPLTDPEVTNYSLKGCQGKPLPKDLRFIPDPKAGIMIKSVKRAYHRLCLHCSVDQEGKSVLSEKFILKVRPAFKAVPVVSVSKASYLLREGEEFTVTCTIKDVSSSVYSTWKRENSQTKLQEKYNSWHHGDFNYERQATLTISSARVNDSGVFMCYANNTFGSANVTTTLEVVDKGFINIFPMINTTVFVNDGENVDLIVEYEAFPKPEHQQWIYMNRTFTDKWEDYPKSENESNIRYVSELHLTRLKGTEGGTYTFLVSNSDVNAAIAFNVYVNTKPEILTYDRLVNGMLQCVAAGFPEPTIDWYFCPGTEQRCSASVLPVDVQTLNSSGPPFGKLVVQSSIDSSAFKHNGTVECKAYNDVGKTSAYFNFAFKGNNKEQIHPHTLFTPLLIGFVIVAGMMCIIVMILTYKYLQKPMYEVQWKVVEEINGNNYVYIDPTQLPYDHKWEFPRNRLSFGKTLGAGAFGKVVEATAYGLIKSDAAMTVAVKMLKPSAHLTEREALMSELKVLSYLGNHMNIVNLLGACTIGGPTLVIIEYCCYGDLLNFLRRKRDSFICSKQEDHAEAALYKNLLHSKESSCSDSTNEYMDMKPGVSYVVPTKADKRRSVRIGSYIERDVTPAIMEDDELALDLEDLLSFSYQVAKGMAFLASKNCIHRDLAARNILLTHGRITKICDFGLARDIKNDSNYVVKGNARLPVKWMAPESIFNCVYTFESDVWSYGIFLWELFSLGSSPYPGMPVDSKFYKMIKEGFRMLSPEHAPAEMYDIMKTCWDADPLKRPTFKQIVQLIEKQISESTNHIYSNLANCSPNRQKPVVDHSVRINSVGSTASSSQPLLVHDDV
# Sequence of Mast/stem cell growth factor receptor Kit (Homo sapiens), P10721 [D820Y] (P10721 whole entry D820Y): as the sequence (P10721 whole entry T670I) above, with I670T, D820Y counted along it
# Sequence of Mast/stem cell growth factor receptor Kit (Homo sapiens), P10721 [V559A] (P10721 whole entry V559A): as the sequence (P10721 whole entry T670I) above, with V559A, I670T counted along it
# Sequence of Mast/stem cell growth factor receptor Kit (Homo sapiens), P10721 [V559G] (P10721 whole entry V559G): as the sequence (P10721 whole entry T670I) above, with V559G, I670T counted along it
# Sequence of Mast/stem cell growth factor receptor Kit (Homo sapiens), P10721 [UNDEFINED MUTATION] (P10721 whole entry, looked up, change not shown): as the sequence (P10721 whole entry T670I) above, with I670T counted along it
# Sequence of Mast/stem cell growth factor receptor Kit (Homo sapiens), P10721 [K642E] (P10721 whole entry K642E): as the sequence (P10721 whole entry T670I) above, with K642E, I670T counted along it
# Sequence of Mast/stem cell growth factor receptor Kit (Homo sapiens), P10721 [Y823D] (P10721 whole entry Y823D): as the sequence (P10721 whole entry T670I) above, with I670T, Y823D counted along it
SMILES,GI50 at 72 h [1] [nM],GI50 [2] [nM],GI50 [3] [nM],other results
COc1cc2nccc(Oc3ccc(NC(=O)CC4CCCCC4)cc3)c2cc1OC,2470,635,362,
COc1cc2nccc(Nc3ccc(NC(=O)Cc4ccc(Cl)c(C(F)(F)F)c4)cc3)c2cc1OC,2210,742,400,
Cc1ccc(NC(=O)c2ccc(CN3CCN(C)CC3)cc2)cc1Nc1nccc(-c2cccnc2)n1 [IMATINIB],> 10000,350,,GI50 [4]: 4080 nM; GI50 [5]: 48 nM; GI50 [6]: 174 nM; GI50 [7]: 115 nM; GI50 [8]: 15 nM; Activity [9]: 1.54 g; inhibition in vivo at 100 mg/kg/day [10]: 66.4%; GI50 [11]: 905 nM; Activity [12]: Active; GI50 [13]: > 10000 nM; GI50 [14]: 608 nM; GI50 [15]: 337 nM; GI50 [16]: 8 nM; GI50 [17]: 5870 nM; GI50 [18]: 435 nM; GI50 [19]: > 10000 nM
COc1cc2nccc(Oc3ccc(NC(=O)Cc4ccc(C)c(C(F)(F)F)c4)cc3)c2cc1OC,7260,17,14,
COc1cc2nccc(Oc3ccc(NC(=O)Cc4ccc(Cl)c(C(F)(F)F)c4)cc3F)c2cc1OC,1990,116,21,
COc1cc2nccc(Oc3ccc(C(=O)NCc4ccc(C(F)(F)F)cc4)cc3)c2cc1OC,6180,2900,668,
COc1cc2nccc(Oc3ccc(NC(=O)Cc4ccc(Cl)c(C(F)(F)F)c4)cc3Cl)c2cc1OC,9450,78,56,
COc1cc2nccc(Oc3ccc(NC(=O)CN4CCN(C)CC4)cc3)c2cc1OC,8700,7330,8520,
COc1cccc(CC(=O)Nc2ccc(Oc3ccnc4cc(OC)c(OC)cc34)cc2)c1,2780,293,339,
COc1cc2nccc(Oc3ccc(NC(=O)Cc4ccc(C)c(C)c4)cc3)c2cc1OC,6420,27,15,
COc1cc2nccc(Oc3ccc(NC(=O)Cc4ccc(Cl)c(C(F)(F)F)c4)c(Cl)c3)c2cc1OC,8220,81,70,
COc1ccc(CC(=O)Nc2ccc(Oc3ccnc4cc(OC)c(OC)cc34)cc2)cc1OC,4130,319,179,
COc1cc2nccc(Oc3ccc(NC(=O)Cc4ccccc4C(F)(F)F)cc3)c2cc1OC,6700,424,309,
COc1cc2nccc(N(C)c3ccc(NC(=O)Cc4ccc(Cl)c(C(F)(F)F)c4)cc3)c2cc1OC,2670,4280,8460,
COc1cc2nccc(Oc3ccc(NC(=O)Cc4ccc(Cl)c(C(F)(F)F)c4)c(C)c3)c2cc1OC,4860,61,75,
COc1cc2nccc(Oc3ccc(NC(=O)Cc4ccc(F)cc4F)cc3)c2cc1OC,704,40,285,
COc1cc2nccc(Oc3ccc(NC(=O)Cc4ccc(F)c(F)c4)cc3)c2cc1OC,670,312,309,
COc1cc2nccc(Oc3ccc(NC(=O)Cc4ccc(Cl)c(Cl)c4)cc3)c2cc1OC,2030,342,37,
COc1cc2nccc(Oc3ccc(NC(=O)Cc4ccc(C(F)(F)F)cc4)cc3)c2cc1OC,2160,22,11,

SMILES,GI50 at 72 h [1] [nM],GI50 [2] [nM],GI50 [3] [nM],other results
COc1cc2nccc(Sc3ccc(NC(=O)Cc4ccc(Cl)c(C(F)(F)F)c4)cc3)c2cc1OC,3090,154,110,
COc1cc2nccc(Oc3ccc(NC(=O)Cc4ccc(Cl)c(C(F)(F)F)c4)cc3C(F)(F)F)c2cc1OC,2920,3000,2840,
COc1cc2nccc(Oc3ccc(NC(=O)Cc4ccc(Cl)c(C(F)(F)F)c4)cc3C)c2cc1OC,7050,105,9,
COc1cc2nccc(Oc3ccc(NC(=O)Cc4ccc(Cl)c(C(F)(F)F)c4)cc3OC)c2cc1OC,8480,34,1560,
COc1cc2nccc(Oc3ccc(C(=O)NCc4cccc(C(F)(F)F)c4)cc3)c2cc1OC,10000,2350,4610,
COc1cc2nccc(Oc3ccc(NC(=O)Cc4ccccc4)cc3)c2cc1OC,> 10000,> 10000,> 10000,
COc1cc2nccc(Oc3ccc(NC(=O)Cc4ccc(Cl)c(C(F)(F)F)c4)cc3C#N)c2cc1OC,9970,989,210,
COc1cc2nccc(Oc3ccc(NC(=O)C4(c5ccccc5)CC4)cc3)c2cc1OC,> 10000,> 10000,> 10000,
COc1cc2nccc(Oc3ccc(NC(=O)Cc4ccc(Cl)c(C(F)(F)F)c4)c(F)c3)c2cc1OC,3210,49,18,
COc1cc2nccc(Oc3ccc(NC(=O)Cc4ccc5c(c4)OCO5)cc3)c2cc1OC,3100,110,167,
Cc1ccc(NC(=O)c2ccc(CN(CCN(C)C)C(=O)c3ccccn3)cc2)cc1Nc1nccc(-c2cccnc2)n1,,,,inhibition [20]: Active; inhibition [21]: Active; inhibition [22]: Active; Activity [12]: Active; inhibition [23]: Active; inhibition [24]: Active; inhibition [25]: Active; inhibition [26]: Active
COc1cc2nccc(Oc3ccc(NC(=O)Cc4ccc(F)c(C(F)(F)F)c4)cc3)c2cc1OC,1030,24,13,
COc1cc2nccc(Oc3ccc(NC(=O)Cc4ccc5ccccc5c4)cc3)c2cc1OC,6230,112,34,
COc1cc2nccc(Oc3ccc(NC(=O)Cc4ccncc4)cc3)c2cc1OC,5130,4710,6990,
COc1cc2nccc(Oc3ccc(NC(=O)Cc4cccc(F)c4)cc3)c2cc1OC,1000,923,342,
CCC(=O)NCC1CCN(c2ccc(NC(=O)Nc3cccc(Oc4ccnc5cc(OC)c(OC)cc45)c3)cc2C(F)(F)F)CC1,> 10000,57,,
COc1cc2nccc(Oc3ccc(NC(=O)Cc4cccc(C(F)(F)F)c4)cc3)c2cc1OC,1890,20,1,
COc1cc2nccc(Oc3ccc(NC(=O)Cc4c(F)cccc4F)cc3)c2cc1OC,1930,2780,1700,
